The structures appear in SMILES notation. Counter-ions that a name gives are not always drawn.

Here are results for 22 compounds from patent publication US5336677A, “Substituted aminopyrimidines as antihypertensives” (American Home Products Corporation, priority 1992, dated 1994).

One assay relates to A II-infused rat. The assay is described as follows: A II-infused rat model, antihypertensive action. The assay is classed as in vivo. To be noted: 3 mg/kg id (duodenal); four hours post-administration; ganglion-blocked (mecamylamine), A II infusion 0.25 μg/kg/min. How it is done:
In accordance with their ability to antagonize angiotensin II, the compounds of this invention show antihypertensive action in the following A II-infused rat model. Rats are anesthetized with Dial-Urethane (0.60 mL/kg, ip) and the trachea cannulated with PE 240. Either one femoral artery and both femoral veins or the carotid artery and the corresponding jugular vein are cannulated with PE 50. If the jugular vein is cannulated, two cannulas are placed in the one vein. The initial portion of the duodenum (just distal to the stomach) is cannulated with PE 50 via a small midline incision. Arterial pressure and heart rate are measured from the arterial cannula. Ten to 15 min are allowed following surgery for stabilization of arterial pressure. Ganglion blockade is then produced by intravenous administration of mecamylamine at 3 mg/kg (1 mL/kg of a 3 mg/mL solution). Ganglion blockade causes a fall in arterial pressure of about 50 mmHg. Mecamylamine is given every 90 min throughout the remainder of the experiment. An A II infusion is then begun into the other venous cannula at 0.25 μg/kg/min (at 9.6 u Vmin). The A II infusion returns arterial pressure to or slightly above the control level. Once arterial pressure has stabilized with the A II infusion, baseline values for mean arterial pressure (MAP) and heart rate are taken. […]
For the compound `Cc1nc(NCc2ccc(-c3ccccc3-c3nnn[nH]3)cc2)cc(C(F)(F)C(F)(F)F)n1` [Example 47, 2-Methyl-6-(pentafluoroethyl)-N-[[2'-(1H-tetrazol-5-yl)[1,1'-biphenyl]-4-yl]methyl]-4-pyrimidinamine sodium salt hydrate], the “lowering of the A II dependent blood pressure (average)” value turned out to be 57%.

For the next assay, the target named is angiotensin II receptor. The assay is described as follows: rat adrenal receptor binding assay, displacement of radiolabeled angiotensin II (Inhibition of 125I Angiotensin II Binding). To be noted: rat adrenal cortex membranes; 1 nM 125I-A II; 25° C.; 35 min. How it is done: The high affinity of the compounds for the angiotensin II receptor was established using a rat adrenal receptor binding assay, measuring the displacement of radiolabeled angiotensin II from the receptor, described as follows: Anesthetize male Sprague-Dawley rats (300-400 g body weight) with CO2 and sacrifice by cervical dislocation. Dissect adrenal glands and keep in ice-cold sucrose buffer. (0.2M sucrose, 1 mM EDTA, 10 mM Trizma base, pH=7.2). Remove medulla by squashing. Mince the cortex, rinse and homogenize in a chilled ground glass tissue grinder with 15 ml sucrose buffer. Centrifuge at 3000× g for 10 min. (Sorvall RCSC centrifuge, SS34 rotor 6200 rpm). Decant supernatant through gauze. Centrifuge combined supernatants at 12,000× g for 13 min. (Beckman ultracentrifuge, 80Ti rotor, 13,000 rpm). […] (Beckman ultracentrifuge, 80Ti rotor, 38,200 rpm). All steps are carried out at 4° C. Resuspend the pellet in 0.5 mL assay buffer (50 mM Tris HCI, 5 mM MgCl2, 0.2% BSA (protease-free), pH= 7.4, 25° C.). Store on ice. Determine membrane protein by Lowry or Bradford assay with BSA as standard. The binding assay is performed in triplicate, in 12×75 mm plastic test tubes or in 96-well plate (final volume of 0.25 mL). Add 140 μL assay buffer. […] Add 50 μL membrane suspension (e.g., 10 μg protein). Preincubate for 30 min at 25° C. […] Incubate for 35 min at 25° C. Stop the incubation by adding 1 mL ice-cold buffer (assay buffer without BSA). Filter with GF/C filters on cell harvester (filters are presoaked in the assay buffer containing 1% polyethyleneimine). Rinse assay tubes 3× with 5 mL cold buffer (assay buffer without BSA). Cut and deposit the filter discs into test tubes and count on gamma counter for 1 min. […] Calculate the quantities of hot A II and the cold A II needed and make the dilution. Aliquot, seal tight, and store frozen until needed. Calculate the concentration of the total A II (hot+cold) after dilution. On the day of assay, thaw the frozen aliquot and adjust the volume to give a concentration of 5 pmole/mL (or 0.25 pmole/50 μL) with assay buffer (+protease-free BSA).
Consider `CCCc1c(C)nc(C(F)(F)F)nc1NCc1ccc(-c2ccccc2-c2nnn[nH]2)cc1` [Example 34, 6-Methyl-5-propyl-N-[[2'-(1H-tetrazol-5-yl)[1,1'-biphenyl]-4-yl]methyl]-2-(trifluoromethyl)-4-pyrimidinamine sodium salt hemihydrate], for which the half-inhibitory concentration (IC50) is 25 nM.
`Cc1nc(C(F)(F)F)nc(NCc2ccc(-c3ccccc3-c3nnn[nH]3)cc2)c1C(C)C` [Example 35, 6-Methyl-5-(1-methylethyl)-N-[[2'-(1H-tetrazol-5-yl)[1,1'-biphenyl]-4-yl]methyl]-2-(trifluoromethyl)-4-pyrimidinamine sodium salt sesquihydrate] yielded an IC50 of 3 nM.
Take `CCc1cc(NCc2ccc(-c3ccccc3-c3nnn[nH]3)cc2)nc(C(F)(F)F)n1` [Example 36, 6-Ethyl-N-[[2'-(1H-tetrazol-5-yl)[1,1'-biphenyl]-4-yl]methyl]-2-(trifluoromethyl)-4-pyrimidinamine sodium salt sesquihydrate]: the IC50 stood at 5.6 nM.
Take `FC(F)(F)C(F)(F)c1cc(NCc2ccc(-c3ccccc3-c3nnn[nH]3)cc2)nc(C2CC2)n1` [Example 37, 2-Cyclopropyl-6-(pentafluoroethyl)-N-[[2'-(1H-tetrazol-5-yl)[1,1'-biphenyl]-4-yl]methyl]-4-pyrimidinamine hydrate]: the IC50 amounted to 39 nM.
Still for that read-out and setting: under `CCc1cc(NCc2ccc(-c3ccccc3-c3nnn[nH]3)cc2)nc(C)n1` [Example 38, 6-Ethyl-2-methyl-N-[[2'-(1H-tetrazol-5-yl)[1,1'-biphenyl]-4-yl]methyl]-4-pyrimidinamine acetate trihydrate] stands 7.8 nM; under `CCCc1cnc(C(F)(F)F)nc1NCc1ccc(-c2ccccc2-c2nnn[nH]2)cc1` [Example 39, 5-Propyl-N-[[2'-(1H-tetrazol-5-yl)[1,1'-biphenyl]-4-yl]methyl]-2-(trifluoromethyl)-4-pyrimidinamine sodium salt hydrate], 49 nM; under `CCc1nc(C(F)(F)F)nc(NCc2ccc(-c3ccccc3-c3nnn[nH]3)cc2)c1C(C)C` [Example 40, 6-Ethyl-5-(1-methylethyl)-N-[[2'-1H-tetrazol-5-yl)[1,1'-biphenyl]-4-yl]methyl]-2-(trifluoromethyl)-4-pyrimidinamine sodium salt], 6.5 nM.
`Cc1cccc(Cc2c(NCc3ccc(-c4ccccc4-c4nnn[nH]4)cc3)nc(C)nc2C(F)(F)F)c1` [Example 42, 2-Methyl-5-[(3-methylphenyl)methyl]-N-[[2'-(1H-tetrazol-5-yl)[1,1'-biphenyl]-4-yl]methyl]-6-(trifluoromethyl)-4-pyrimidinamine sodium salt]: the IC50 stood at 41 nM.
Still for that read-out and setting: under `CCc1c(NCc2ccc(-c3ccccc3-c3nnn[nH]3)cc2)nc(C)nc1C(F)(F)C(F)(F)F` [Example 43, 5-Ethyl-2-methyl-N-[[2'-(1H-tetrazol-5-yl)[1,1'-biphenyl]-4-yl]methyl]-6-(pentafluoroethyl)-4-pyrimidinamine sodium salt hydrate] stands 11 nM.
The same measure, in the same setting: under `Cc1nc(NCc2ccc(-c3ccccc3-c3nnn[nH]3)cc2)c(C)c(C(F)(F)F)n1` [Example 44, 2,5-Dimethyl-N-[[2'-(1H-tetrazol-5-yl)[1,1'-biphenyl]-4-yl]methyl]-6-(trifluoromethyl)-4-pyrimidinamine hemihydrate] stands 20 nM.
Consider `Cc1nc(C(F)(F)F)nc(NCc2ccc(-c3ccccc3-c3nnn[nH]3)cc2)c1Cc1ccccc1` [Example 45, 6-Methyl-5-(phenylmethyl)-N-[[2'-(1H-tetrazol-5-yl)[1,1'-biphenyl]-4-yl]methyl]-2-(trifluoromethyl)-4-pyrimidinamine sodium salt hydrate], for which the half-inhibitory concentration (IC50) turned out to be 48 nM.
Turning to `CCCc1c(CC)nc(C(F)(F)F)nc1NCc1ccc(-c2ccccc2-c2nnn[nH]2)cc1` [Example 46, 6-Ethyl-5-propyl-N-[[2'-(1H-tetrazol-5-yl)[1,1'-biphenyl]-4-yl]methyl]-2-(trifluoromethyl)-4-pyrimidinamine sodium salt], the IC50 worked out at 2.5 nM.
Same read-out and setting: in the case of `Cc1nc(NCc2ccc(-c3ccccc3-c3nnn[nH]3)cc2)cc(C(F)(F)C(F)(F)F)n1` [Example 47, 2-Methyl-6-(pentafluoroethyl)-N-[[2'-(1H-tetrazol-5-yl)[1,1'-biphenyl]-4-yl]methyl]-4-pyrimidinamine sodium salt hydrate] it was 38 nM; in that of `Cc1nc(NCc2ccc(-c3ccccc3-c3nnn[nH]3)cc2)cc(C(F)(F)F)n1` [Example 48, 2-Methyl-N-[[2'-(1H-tetrazol-5-yl)[1,1'-biphenyl]-4-yl]methyl]-6-(trifluoromethyl)-4-pyrimidinamine hydrate], 61 nM; in that of `Cc1nc(NCc2ccc(-c3ccccc3C(=O)O)cc2)cc(C(F)(F)C(F)(F)F)n1` [Example 50, 4'-[[[2-Methyl-6-(pentafluoroethyl)-4-pyrimidinyl]amino]methyl][1,1'-biphenyl]-2-carboxylic acid hemihydrate], 330 nM.
Same read-out and setting: in the case of `Cc1nc(NCc2ccc(-c3ccccc3C(=O)O)cc2)cc(C(F)(F)F)n1` [Example 51, 4'-[[[2-Methyl-6-(trifluoromethyl)-4-pyrimidinyl]amino]methyl][1,1'-biphenyl]-2-carboxylic acid sesquihydrate] it was 850 nM; in that of `Cc1cc(NCc2ccc(-c3ccccc3C(=O)O)cc2)nc(C(F)(F)F)n1` [Example 52, 4'-[[[6-Methyl-2-(trifluoromethyl)-4-pyrimidinyl]amino]methyl][1,1'-biphenyl]-2-carboxylic acid], 500 nM.
The same measure, in the same setting: in the case of `C=CCc1c(C)nc(C)nc1NCc1ccc(-c2ccccc2-c2nnn[nH]2)cc1` [Example 53, 2,6-Dimethyl-5-(2-propenyl)-N-[(2'-(1H-tetrazol-5-yl)[1,1-biphenyl]-4-yl)methyl]-4-pyrimidinamine] it was 7.5 nM.
With `C=CCc1c(C)nc(C(F)(F)F)nc1NCc1ccc(-c2ccccc2-c2nnn[nH]2)cc1` [Example 54], the 50% inhibitory concentration (IC50) was determined as 16 nM.
With `Cc1nc(C)c(Cc2cccs2)c(NCc2ccc(-c3ccccc3-c3nnn[nH]3)cc2)n1` [Example 55, 2,6-Dimethyl-5-(2-thienylmethyl)-N-[(2'-(1H-tetrazol-5-yl)[1,1-biphenyl]-4-yl)methyl]-4-pyrimidinamine], the 50% inhibitory concentration (IC50) turned out to be 58 nM.
Still for that read-out and setting: under `Cc1nc(C)c(CC(=O)O)c(NCc2ccc(-c3ccccc3-c3nnn[nH]3)cc2)n1` [Example 56, [2,6-Dimethyl-N-[(2'-(1H-tetrazol-5-yl)[1,1-biphenyl]-4-yl)methyl]-4-pyrimidinamin-5-yl]acetic acid] stands 200 nM; under `C#CCc1c(C)nc(C)nc1NCc1ccc(-c2ccccc2-c2nnn[nH]2)cc1` [Example 57, 2,6-Dimethyl-5-(2-propynyl)-N-[(2'-(1H-tetrazol-5-yl)[1,1-biphenyl]-4-yl)methyl]-4-pyrimidinamine], 39 nM.

For orientation: IC50 means the concentration that inhibits the measured activity by half. Read a high IC50 as lower potency.
